ChEMBL document CHEMBL1201862, “PubChem BioAssay data set” (2004)
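Values below derive from 48-hour exposures of cells grown in 96-well plates, with endpoints linearly interpolated between the two concentrations bracketing the appropriate inhibition level. GI50 is the concentration that inhibits growth by half.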 Activity calls are given as the source filed them. No stated cut-off is given here; in the data, active = GI50 up to about 1.1 µM and inactive = higher.

Assays:
Experiment in all cases: inhibition of tumour cell growth, NCI panel, 48 h
NCI-H226 = tested on: NCI-H226
TK-10 = tested on: TK-10
CCRF-CEM = tested on: CCRF-CEM
SF-295 = tested on: SF-295
NCI-H522 = tested on: NCI-H522
SK-MEL-28 = tested on: SK-MEL-28
SF-268 = tested on: SF-268
SW-620 = tested on: SW-620
SK-MEL-2 = tested on: SK-MEL-2
U-251 = tested on: U-251
786-0 = tested on: 786-0
M14 = tested on: M14
OVCAR-3 = tested on: OVCAR-3
PC-3 = tested on: PC-3
MCF7 = tested on: MCF7
HCT-15 = tested on: HCT-15
K562 = tested on: K562
SNB-75 = tested on: SNB-75
T47D = tested on: T47D
RPMI-8226 = tested on: RPMI-8226

Compound | GI50 (NCI-H226) | GI50 (TK-10) | GI50 (CCRF-CEM) | GI50 (SF-295) | GI50 (NCI-H522) | GI50 (SK-MEL-28) | GI50 (SF-268) | GI50 (SW-620) | GI50 (SK-MEL-2) | GI50 (U-251) | GI50 (786-0) | GI50 (M14) | GI50 (OVCAR-3) | GI50 (PC-3) | GI50 (MCF7) | GI50 (HCT-15) [µM] | GI50 (K562) | GI50 (SNB-75) | GI50 (T47D) | GI50 (RPMI-8226)
c1ccc(CCNc2ccccn2)nc1 | > 100 µM (inactive) | > 100 µM (inactive) | > 100 µM (inactive) | > 100 µM (inactive) | > 100 µM (inactive) | > 100 µM (inactive) | > 100 µM (inactive) | > 100 µM (inactive) | > 100 µM (inactive) | > 100 µM (inactive) | > 100 µM (inactive) | > 100 µM (inactive) | > 100 µM (inactive) | > 100 µM (inactive) | > 100 µM (inactive) | > 100 |  |  |  | 
Cc1csc(-n2c(C)nc3cc(Cl)ccc3c2=O)n1 | > 100 µM (inactive) | > 100 µM (inactive) | 74.8 µM (inactive) | > 100 µM (inactive) | 22.2 µM (inactive) | > 100 µM (inactive) | 42.8 µM (inactive) | > 100 µM (inactive) | > 100 µM (inactive) | > 100 µM (inactive) | > 100 µM (inactive) | > 100 µM (inactive) | 78.9 µM (inactive) | > 100 µM (inactive) | 31.5 µM (inactive) | 67.5 | 83.6 µM (inactive) | > 100 µM (inactive) |  | 
Nc1ccc(/C=C/c2ccc3cccnc3c2)cc1 | > 100 µM (inactive) | > 100 µM (inactive) | > 100 µM (inactive) | > 100 µM (inactive) |  | > 100 µM (inactive) | > 100 µM (inactive) | > 100 µM (inactive) |  | > 100 µM (inactive) | > 100 µM (inactive) | > 100 µM (inactive) | > 100 µM (inactive) | > 100 µM (inactive) | 5.81 µM (inactive) | > 100 | > 100 µM (inactive) | > 100 µM (inactive) | 92.9 µM (inactive) | 2.26 µM (inactive)
O=C1c2ccccc2-c2c1c(-c1cccc(Br)c1)nc1ccc3ccccc3c21 | > 100 µM (inactive) |  | > 100 µM (inactive) | > 100 µM (inactive) |  | > 100 µM (inactive) | > 100 µM (inactive) | > 100 µM (inactive) | > 100 µM (inactive) | > 100 µM (inactive) | > 100 µM (inactive) | > 100 µM (inactive) | > 100 µM (inactive) | > 100 µM (inactive) | > 100 µM (inactive) | > 100 | > 100 µM (inactive) | > 100 µM (inactive) | > 100 µM (inactive) | > 100 µM (inactive)
CCOC(=O)c1ccc2c(c1)Cc1cc([N+](=O)[O-])ccc1-2 | 17.8 µM (inactive) | 24.4 µM (inactive) | 61.2 µM (inactive) | 23.1 µM (inactive) |  | 43 µM (inactive) | 24 µM (inactive) | 65.2 µM (inactive) |  | 39.4 µM (inactive) | 86.5 µM (inactive) | 97.1 µM (inactive) | 46.6 µM (inactive) | 61.9 µM (inactive) | 19.3 µM (inactive) | 57.8 | 55 µM (inactive) |  | 87.1 µM (inactive) | 41.7 µM (inactive)
NC(CO)c1ccc(OCc2ccccc2)cc1 (centres undefined) | > 100 µM (inactive) | > 100 µM (inactive) | 40.6 µM (inactive) | > 100 µM (inactive) | 42 µM (inactive) | > 100 µM (inactive) | > 100 µM (inactive) | 38.8 µM (inactive) | > 100 µM (inactive) | > 100 µM (inactive) | > 100 µM (inactive) | > 100 µM (inactive) | > 100 µM (inactive) |  |  | > 91.8 | > 100 µM (inactive) | 20.3 µM (inactive) |  | > 100 µM (inactive)
C=CCOC1CC(n2cnc3c(N)ncnc32)OC1CO (centres undefined) | > 100 µM (inactive) | > 100 µM (inactive) | > 100 µM (inactive) | > 100 µM (inactive) | > 100 µM (inactive) | > 100 µM (inactive) | > 100 µM (inactive) | > 100 µM (inactive) | > 100 µM (inactive) | > 100 µM (inactive) | > 100 µM (inactive) | > 100 µM (inactive) | > 100 µM (inactive) |  |  | > 100 | > 100 µM (inactive) | 51.1 µM (inactive) |  | > 100 µM (inactive)
COc1ccc(-c2nc(-c3cc4c(ccc5ccccc54)oc3=O)cs2)cc1 | 31 µM (inactive) | > 100 µM (inactive) | > 100 µM (inactive) | > 100 µM (inactive) |  | > 100 µM (inactive) | > 100 µM (inactive) | > 100 µM (inactive) | > 100 µM (inactive) | > 10 µM (inactive) | 33.2 µM (inactive) | > 100 µM (inactive) |  | > 100 µM (inactive) | > 100 µM (inactive) | > 100 | > 100 µM (inactive) | 66.5 µM (inactive) | > 100 µM (inactive) | > 100 µM (inactive)
